The values that follow come from patent US20130172360A1, “DERIVATIVES OF AZAINDAZOLE OR DIAZAINDAZOLE TYPE AS MEDICAMENT” (PIERRE FABRE MEDICAMENT, priority 2011, published 2013).

For series [1], the target named is T1, ALK (Homo sapiens, UniProt Q9UM73). Description: Test for measuring inhibition of ALK kinase (GST-PLCγ1 substrate, anti-phosphotyrosine ELISA, luminescence). The format is biochemical. The conditions noted are these: 250 μM ATP, 30 minutes at 30° C.; read-out: Enzymatic inhibition of ALK (IC50). As to the method:
Test for Measuring Inhibition of ALK Kinase:
A ViewPlate microplate (Packard) is incubated with 0.1 mg/ml GST-PLCγ1 substrate (purified recombinant form) in phosphate buffer (PBS, pH 7.4) (100 μl/well) for one hour under stirring. The plate is then saturated with blocking solution comprising 5% bovine serum albumin (BSA) (Sigma) in PBS buffer, pH 7.4.
After having added a compound according to the invention to the desired final concentration (typical range between 30 μM and 10 nM), the reaction is carried out by adding 180 ng/ml ALK to a reaction buffer comprised of 13 mM Tris, pH 7.5 (Sigma); 6.5 mM MgCl2 (Merck); 0.65 mM dithiothreitol (DTT) (Acros); 39 mM sodium ([…] (TCI); 0.65 mM sodium orthovanadate (Sigma); and 250 μM ATP (Sigma). Incubation is carried out for 30 minutes at 30° C. under stirring.
After three washings under stirring in 0.1% PBS/Tween-20 buffer (Sigma), an anti-phosphotyrosine antibody, coupled with HRP (UBI) diluted to 1/1000 in 5 mg/ml PBS/BSA buffer, is incubated for one hour with stirring. After three new washings in 0.1% PBS/Tween-20, the wells are incubated for two minutes with […] of SuperSignal ELISA mixture (Pierce).
The signal is read in luminescence mode using a luminometer (SpectraMax M5e, Molecular Devices).
IC50s are determined by nonlinear regression on the basis of a sigmoidal dose/response relationship model, wherein the Hill coefficient is left variable, carried out on the GraphPad software package according to the algorithm provided.
In general terms: An ELISA detects its analyte on a solid surface through an enzyme-linked reagent.

Series [2] deals with Karpas 299 cells (human anaplastic large-cell lymphoma). Nature of the series: Test for measuring inhibition of cell (Karpas 299) proliferation (ATPlite). The format is cell-based. The conditions noted are these: 72 hours. As to the method: Test for Measuring Inhibition of Cell (Karpas 299) Proliferation:
The antiproliferative activities of the compounds according to the invention were measured by the ATPlite technique (Perkin Elmer).
Nonadherent human anaplastic large-cell lymphoma cells (Karpas 299) are inoculated in 96-well plates (300,000 cells/ml) at day 1, at a concentration compatible with logarithmic growth for the 72 hours required for the evaluation of the compounds. All of the cells are treated at day 1 and then placed in an incubator at 37° C. under an atmosphere of 5% CO2. Cell viability is evaluated at day 4 by assaying released ATP, which is characteristic of viable cells. IC50s are determined by nonlinear regression on the basis of a sigmoidal dose/response relationship model, wherein the Hill coefficient is left variable, carried out on the GraphPad software package according to the algorithm provided.
For orientation: ATP-based viability assays read luminescence as a measure of living cells.

The target in series [3] is T1, ALK. Description: Inhibition of a panel of kinases (Millipore): ALK. Type of series: biochemical. The settings on record: Millipore kinase panel; read-out: Enzyme inhibition (IC50, nM) ALK. From the text: (§1) Test for Measuring Inhibition of a Panel of Kinases:
(§2) These kinases are produced by Millipore and are screened according to the manufacturer's protocols.

A further series has as its target T2, c-Src (Homo sapiens, UniProt P12931).
T2 construct: purchased Millipore
Description: Inhibition of a panel of kinases (Millipore): c-Src. The settings on record: Millipore kinase panel; read-out: Enzyme inhibition (IC50, nM) c-Src. The format is biochemical.
Source text: as §1, §2

For another series, the target named is T3, Abl (Homo sapiens, UniProt P00519).
T3 construct: purchased Millipore
T3 sequence (P00519 whole entry, species assumed): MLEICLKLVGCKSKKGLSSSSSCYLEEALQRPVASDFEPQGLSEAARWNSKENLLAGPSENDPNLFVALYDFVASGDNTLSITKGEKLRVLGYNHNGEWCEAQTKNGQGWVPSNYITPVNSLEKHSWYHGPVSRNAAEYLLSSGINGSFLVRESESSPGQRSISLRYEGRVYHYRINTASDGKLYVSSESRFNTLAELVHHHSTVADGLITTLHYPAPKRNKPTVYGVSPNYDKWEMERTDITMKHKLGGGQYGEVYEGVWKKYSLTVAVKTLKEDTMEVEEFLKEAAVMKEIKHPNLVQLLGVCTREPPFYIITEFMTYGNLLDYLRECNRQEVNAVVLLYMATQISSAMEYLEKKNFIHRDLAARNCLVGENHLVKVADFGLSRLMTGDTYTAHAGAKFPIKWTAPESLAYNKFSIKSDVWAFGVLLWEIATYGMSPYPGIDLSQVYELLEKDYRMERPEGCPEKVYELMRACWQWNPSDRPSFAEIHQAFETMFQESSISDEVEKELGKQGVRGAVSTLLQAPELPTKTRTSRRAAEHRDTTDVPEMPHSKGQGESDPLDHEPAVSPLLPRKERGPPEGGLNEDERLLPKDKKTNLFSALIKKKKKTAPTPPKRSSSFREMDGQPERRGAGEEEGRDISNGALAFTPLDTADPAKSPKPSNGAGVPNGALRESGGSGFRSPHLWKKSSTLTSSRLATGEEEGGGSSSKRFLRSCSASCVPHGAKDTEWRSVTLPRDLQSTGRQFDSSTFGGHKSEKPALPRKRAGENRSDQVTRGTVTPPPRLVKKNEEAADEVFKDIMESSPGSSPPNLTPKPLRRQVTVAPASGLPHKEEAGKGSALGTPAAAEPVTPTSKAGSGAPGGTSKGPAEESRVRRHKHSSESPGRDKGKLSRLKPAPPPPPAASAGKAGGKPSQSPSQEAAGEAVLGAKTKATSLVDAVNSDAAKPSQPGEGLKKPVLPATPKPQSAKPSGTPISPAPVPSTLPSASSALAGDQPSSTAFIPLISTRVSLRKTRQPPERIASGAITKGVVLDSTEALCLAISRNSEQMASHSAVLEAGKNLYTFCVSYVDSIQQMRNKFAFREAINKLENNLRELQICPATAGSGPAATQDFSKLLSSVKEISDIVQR
Description: Inhibition of a panel of kinases (Millipore): Abl. The settings on record: Millipore kinase panel; read-out: Enzyme inhibition (IC50, nM) Abl. The format is biochemical.
Source text: as §1, §2

For series [4], the system named is human anaplastic large-cell lymphoma (ALCL) tumor model. Description: In vivo antitumor activity, ALCL tumors grafted subcutaneously in mice, oral daily dosing. The conditions noted are these: mice with subcutaneous ALCL tumors, daily schedule; for adverse effects: animals weighed several times per week; for inhibition of ALCL tumor growth: corresponds to complete regression of the tumors. Here is the method: Pharmacological Activity In Vivo
The compounds were administered orally at various doses on a daily schedule to mice with ALCL tumors grafted subcutaneously. Tumor size was measured regularly during the study and the animals were weighed several times per week in order to identify any adverse effects. A compound is declared active if it induces inhibition of ALCL tumor growth by at least 58%.

T1 sequence (Q9UM73 19-1620): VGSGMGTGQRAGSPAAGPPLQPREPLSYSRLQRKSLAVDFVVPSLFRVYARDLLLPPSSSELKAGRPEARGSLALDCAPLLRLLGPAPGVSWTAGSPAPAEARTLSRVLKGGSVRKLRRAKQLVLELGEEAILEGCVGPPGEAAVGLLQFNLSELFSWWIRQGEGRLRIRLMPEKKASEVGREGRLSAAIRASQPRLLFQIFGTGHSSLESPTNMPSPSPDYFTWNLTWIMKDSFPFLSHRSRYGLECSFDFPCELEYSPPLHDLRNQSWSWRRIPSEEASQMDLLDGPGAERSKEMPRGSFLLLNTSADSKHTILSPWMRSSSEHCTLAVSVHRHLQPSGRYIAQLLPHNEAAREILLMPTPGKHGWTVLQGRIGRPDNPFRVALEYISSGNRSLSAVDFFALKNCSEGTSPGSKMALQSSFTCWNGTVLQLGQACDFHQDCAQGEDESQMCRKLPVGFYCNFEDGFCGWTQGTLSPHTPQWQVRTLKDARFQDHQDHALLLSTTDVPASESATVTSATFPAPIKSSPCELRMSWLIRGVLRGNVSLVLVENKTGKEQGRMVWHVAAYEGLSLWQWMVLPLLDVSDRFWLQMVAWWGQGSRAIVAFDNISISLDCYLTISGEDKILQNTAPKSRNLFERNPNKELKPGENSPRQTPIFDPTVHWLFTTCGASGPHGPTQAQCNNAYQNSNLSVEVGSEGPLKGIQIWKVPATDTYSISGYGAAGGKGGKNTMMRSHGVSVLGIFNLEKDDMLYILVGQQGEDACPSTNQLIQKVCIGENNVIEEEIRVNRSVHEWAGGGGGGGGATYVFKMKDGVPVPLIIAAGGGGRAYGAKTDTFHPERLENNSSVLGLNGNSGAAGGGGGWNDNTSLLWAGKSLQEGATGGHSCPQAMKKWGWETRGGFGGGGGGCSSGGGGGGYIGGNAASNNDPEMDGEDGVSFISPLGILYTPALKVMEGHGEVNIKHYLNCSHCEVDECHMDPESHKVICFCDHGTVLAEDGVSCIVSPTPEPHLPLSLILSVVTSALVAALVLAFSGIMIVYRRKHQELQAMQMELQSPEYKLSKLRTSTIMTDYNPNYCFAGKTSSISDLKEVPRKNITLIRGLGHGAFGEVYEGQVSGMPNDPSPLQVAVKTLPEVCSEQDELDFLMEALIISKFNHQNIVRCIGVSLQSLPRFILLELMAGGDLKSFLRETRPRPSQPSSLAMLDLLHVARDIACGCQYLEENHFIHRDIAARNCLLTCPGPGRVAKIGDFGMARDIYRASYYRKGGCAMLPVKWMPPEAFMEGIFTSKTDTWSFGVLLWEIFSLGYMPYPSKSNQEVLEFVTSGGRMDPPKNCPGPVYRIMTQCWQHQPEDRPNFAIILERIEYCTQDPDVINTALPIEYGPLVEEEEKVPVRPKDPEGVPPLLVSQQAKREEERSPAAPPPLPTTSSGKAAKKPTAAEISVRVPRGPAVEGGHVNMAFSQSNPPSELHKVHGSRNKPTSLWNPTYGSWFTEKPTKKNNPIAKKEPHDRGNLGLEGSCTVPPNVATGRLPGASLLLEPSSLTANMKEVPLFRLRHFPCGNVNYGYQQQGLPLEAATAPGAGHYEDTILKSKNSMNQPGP
T2 sequence (P12931 whole entry): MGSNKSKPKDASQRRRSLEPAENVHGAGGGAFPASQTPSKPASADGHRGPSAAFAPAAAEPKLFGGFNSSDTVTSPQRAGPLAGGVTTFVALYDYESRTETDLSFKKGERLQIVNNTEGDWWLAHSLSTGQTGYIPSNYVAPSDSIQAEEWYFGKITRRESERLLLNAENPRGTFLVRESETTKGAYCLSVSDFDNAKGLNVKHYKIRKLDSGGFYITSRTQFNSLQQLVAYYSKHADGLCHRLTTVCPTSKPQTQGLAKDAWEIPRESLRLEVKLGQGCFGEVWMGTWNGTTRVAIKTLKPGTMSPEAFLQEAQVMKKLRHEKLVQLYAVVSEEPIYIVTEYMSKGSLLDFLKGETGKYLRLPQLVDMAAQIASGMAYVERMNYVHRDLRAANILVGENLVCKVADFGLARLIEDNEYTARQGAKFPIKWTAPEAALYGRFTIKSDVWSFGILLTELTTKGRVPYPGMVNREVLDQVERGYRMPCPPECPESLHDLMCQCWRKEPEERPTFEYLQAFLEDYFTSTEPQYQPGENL

A word on the IC50: it is the point on the concentration scale where inhibition reaches its midpoint. Consider `CN1CCN(c2ccc(C(=O)Nc3n[nH]c4ncc(CCc5cc(F)cc(F)c5)cc34)c(NC3CCOCC3)c2)CC1` [Example 31, N-(5-(3,5-difluorophenethyl)-1H-pyrazolo[3,4-b]pyridin-3-yl)-4-(4-methylpiperazin-1-yl)-2-(tetrahydro-2H-pyran-4-ylamino)benzamide], for which the IC50 was 17 nM on ALK [1] and 830 nM in series [2].

Regarding `CN1CCN(c2ccc(C(=O)Nc3n[nH]c4ncc(Sc5ccccc5C(N)=O)cc34)c(NC3CCOCC3)c2)CC1` [Example 30-1, N-(5-(2-carbamoylphenylthio)-1H-pyrazolo[3,4-b]pyridin-3-yl)-4-(4-methylpiperazin-1-yl)-2-(tetrahydro-2H-pyran-4-ylamino)benzamide], the IC50 on ALK [1] came to 20 nM; in series [2], 2200 nM.

`CN1CCN(c2ccc(C(=O)Nc3n[nH]c4ncc(Sc5cc(F)cc(F)c5)cc34)c(NC3CCOCC3)c2)CC1` [Example 30, N-(5-(3,5-difluorophenylthio)-1-H-pyrazolo[3,4-b]pyridine-3-yl)-4-(4-methylpiperazine-1-yl)-2-(tetrahydro-2H-pyran-4-ylamino)benzamide]: the IC50 is 7 nM on ALK [3]; 1 nM on ALK [1]; 4 nM on c-Src; 18 nM on Abl; 160 nM in series [2]. In series [4], the adverse effects entry is given as “no adverse effects”. Moreover, in series [4], the “inhibition of ALCL tumor growth” value turned out to be 100%.

In the case of `CN1CCN(c2ccc(C(=O)Nc3n[nH]c4ncc(Cc5cc(F)cc(F)c5)cc34)c(NC3CCOCC3)c2)CC1` [Example 30-9, N-(5-(3,5-difluorobenzyl)-1H-pyrazolo[3,4-b]pyridin-3-yl)-4-(4-methylpiperazin-1-yl)-2-(tetrahydro-2H-pyran-4-ylamino)benzamide], the half-inhibitory concentration (IC50) on ALK [3] is 15 nM; on ALK [1], 1 nM; at c-Src, 9 nM; on Abl, 38 nM. The adverse effects result in series [4] is listed as “no adverse effects”. The “inhibition of ALCL tumor growth” value in series [4] is on record as 100%.

For the compound `CN1CCN(c2ccc(CNc3n[nH]c4ncc(Sc5cc(F)cc(F)c5)cc34)cc2)CC1` [Example 28, 5-(3,5-difluorophenylthio)-N-(4-(4-methylpiperazin-1-yl)benzyl)-1H-pyrazolo[3,4-b]pyridin-3-amine], the IC50 at ALK [1] came out at 36 nM.

`COc1nc2[nH]nc(NC(=O)c3ccc(N4CCN(C)CC4)cc3NC3CCOCC3)c2cc1Sc1cc(F)cc(F)c1` [Example 30-5, N-(5-(3,5-difluorophenylthio)-6-methoxy-1H-pyrazolo[3,4-b]pyridin-3-yl)-4-(4-methylpiperazin-1-yl)-2-(tetrahydro-2H-pyran-4-ylamino)benzamide]: the IC50 on ALK [1] turned out to be 66 nM; in series [2] it was 2600 nM.
